In patent publication US12533339B2, “Small molecule antiviral drug treatment for human papillomavirus infections” (THE TRUSTEES OF INDIANA UNIVERSITY, priority 2020, dated 2026):

Key:
[1] = molecular target: T1, E6 WT/E6AP (Human papillomavirus type 16, UniProt P03126); assay: biochemical; type: binding; conditions: WT 16E6; for inhibition at 10 µM: 10 μM compound; for inhibition at 100 µM: 100 μM compound
[2] = molecular target: E6C51S/E6AP (Human papillomavirus type 16, UniProt P03126, C58S); assay: E6/E6AP binding assay (amylose-bound MBP-16E6, E6AP-BAP activity), C51S 16E6; design: species or system HPV-16; conditions: for % Inhibition @ 10 μM E6C51S/E6AP: 10 μM compound; for % Inhibition @ 100 μM E6C51S/E6AP: 100 μM compound
Chain of E6C51S/E6AP (P03126 whole entry C58S, looked up): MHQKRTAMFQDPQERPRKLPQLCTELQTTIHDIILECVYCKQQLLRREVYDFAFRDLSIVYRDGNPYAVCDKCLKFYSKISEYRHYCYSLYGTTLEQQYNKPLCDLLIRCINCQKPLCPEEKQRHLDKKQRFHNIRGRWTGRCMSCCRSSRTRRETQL

[3] = molecular target: T1, E6 WT/E6AP; assay: biochemical; type: binding; conditions: for Emax: 24 h, read-out: FP maximal inhibition (max %) E6 WT/E6AP; for IC50: FP IC50 at 24 h (μM) E6 WT/E6AP

T1 sequence (P03126 8-158): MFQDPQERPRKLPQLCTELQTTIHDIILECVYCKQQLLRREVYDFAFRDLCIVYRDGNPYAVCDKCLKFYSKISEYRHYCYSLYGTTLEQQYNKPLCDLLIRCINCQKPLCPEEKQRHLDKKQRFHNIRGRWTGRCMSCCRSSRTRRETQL

Compound	inhibition at 10 µM [1] [%]	inhibition at 100 µM [1] [%]	% Inhibition @ 10 μM E6C51S/E6AP [2] [%]	% Inhibition @ 100 μM E6C51S/E6AP [2] [%]	Emax [3] [%]	IC50 [3] [µM]	FP maximal inhibition (max %) E6 WT/E6AP ([3]; at 24 h)
Cc1sc2nc(CCc3ccccc3)nc(N3CCN(C(=O)CCl)CC3)c2c1C [EIN-128, 2-chloro-1-(4-(5,6-dimethyl-2-phenethylthieno[2,3-d]pyrimidin-4-yl)piperazin-1-yl)ethan-1-one]	47 ± 14	106 ± 11	19 ± 8	60 ± 3			
O=C(CCl)N1CCCN(C(=O)CN2CCc3sccc3C2c2cccc(F)c2)CC1 (centres unmarked) [EIN-119, 2-chloro-1-(4-(2-(4-(3-fluorophenyl)-6,7-dihydrothieno[3,2-c]pyridin-5(4H)-yl)acetyl)-1,4-diazepan-1-yl)ethan-1-one]	33 ± 6	61 ± 1	9 ± 7	34 ± 7			
C=CC(=O)N1CCN(c2nc(-c3ccccc3OC)nc3ccccc23)CC1 [EIN-160, 1-(4-(2-(2-methoxyphenyl)quinazolin-4-yl)piperazin-1-yl)prop-2-en-1-one]					100	128 ± 2.3	
C=CC(=O)N1CCN(c2nc(-c3ccc(OC4CC4)cc3)nc3ccccc23)CC1 [EIN-163, 1-(4-(2-(4-cyclopropoxyphenyl)quinazolin-4-yl)piperazin-1-yl)prop-2-en-1-one]					100	41.6 ± 2.8	
Cc1nc(N2CCN(C(=O)CCl)CC2)c2c3c(sc2n1)CCCC3 [EIN-123, 2-chloro-1-(4-(2-methyl-5,6,7,8-tetrahydrobenzo[4,5]thieno[2,3-d]pyrimidin-4-yl)piperazin-1-yl)ethan-1-one]	58 ± 12	114 ± 11	44 ± 10	90 ± 6			
Cc1ccccc1C1c2ccsc2CCN1CC(=O)N1CCN(C(=O)CCl)C(C)C1 (centres unmarked) [EIN-118, 2-chloro-1-(2-methyl-4-(2-(4-(o-tolyl)-6,7-dihydrothieno[3,2-c]pyridin-5(4H)-yl)acetyl)piperazin-1-yl)ethan-1-one]	49 ± 5	98 ± 2	12 ± 11	79 ± 5			
C=CC(=O)N1CCN(c2nc(CCc3ccc(F)cc3)nc3ccccc23)CC1 [EIN-153, 1-(4-(2-(4-fluorophenethyl)quinazolin-4-yl)piperazin-1-yl)prop-2-en-1-one]					100	27.7 ± 1.3	
Cc1ccccc1C1c2ccsc2CCN1C(C)C(=O)N1CCCN(C(=O)CCl)CC1 (centres unmarked) [EIN-117, 1-(4-(2-chloroacetyl)-1,4-diazepan-1-yl)-2-(4-(o-tolyl)-6,7-dihydrothieno[3,2-c]pyridin-5(4H)-yl)propan-1-one]	17 ± 1	33 ± 7					
C=CC(=O)N1CCN(c2nc(N(C)Cc3ccccc3F)nc3sc4c(c23)CCCC4)CC1 [EIN-140, 1-(4-(2-((2-fluorobenzyl)(methyl)amino)-5,6,7,8-tetrahydrobenzo[4,5]thieno[2,3-d]pyrimidin-4-yl)piperazin-1-yl)prop-2-en-1-one]	6 ± 6	17 ± 4	0	0			
C=CC(=O)N1CCN(c2nc(-c3ccc(OC)cc3)nc3cccnc23)CC1 [EIN-165, 1-(4-(2-(4-methoxyphenyl)pyrido[3,2-d]pyrimidin-4-yl)piperazin-1-yl)prop-2-en-1-one]					100	38.2 ± 2.1	
C=CC(=O)N1CCN(c2nc(-c3ccc(OC(F)(F)F)cc3)nc3ccccc23)CC1 [EIN-162, 1-(4-(2-(4-(trifluoroniethoxy)phenyl)quinazolin-4-yl)piperazin-1-yl)prop-2-en-1-one]					100	105 ± 13.7	
C=CC(=O)N1CCN(c2nc(N(C)Cc3ccccc3)nc3sc4c(c23)CCCC4)CC1 [EIN-139, 1-(4-(2-(benzyl(methyl)amino)-5,6,7,8-tetrahydrobenzo[4,5]thieno[2,3-d]pyrimidin-4-yl)piperazin-1-yl)prop-2-en-1-one]	13 ± 7	21 ± 4	0	6 ± 3	8	33.1 ± 1.3	
C=CC(=O)N1CCN(c2nc(CCc3cccc(OC)c3)nc3sc4c(c23)CCCC4)CC1 [EIN-151, 1-(4-(2-(3-methoxyphenethyl)-5,6,7,8-tetrahydrobenzo[4,5]thieno[2,3-d]pyrimidin-4-yl)piperazin-1-yl)prop-2-en-1-one]							(max 71%)
COc1ccc(C2c3ccsc3CCN2CC(=O)N2CCN(C(=O)CCl)C(C)C2)cc1 (centres unmarked) [EIN-121, 2-chloro-1-(4-(2-(4-(4-methoxyphenyl)-6,7-dihydrothieno[3,2-c]pyridin-5(4H)-yl)acetyl)-2-methylpiperazin-1-yl)ethan-1-one]	24 ± 2	52 ± 1					
C=CC(=O)N1CCN(c2nc(CCc3cccc(F)c3)nc3ccccc23)CC1 [EIN-158, 1-(4-(2-(3-fluorophenethyl)quinazolin-4-yl)piperazin-1-yl)prop-2-en-1-one]					100	52.8 ± 2.8	
CCc1nc(N2CCN(C(=O)CCl)CC2)c2c3c(sc2n1)CCCC3 [EIN-131, 2-chloro-1-(4-(2-ethyl-5,6,7,8-tetrahydrobenzo[4,5]thieno[2,3-d]pyrimidin-4-yl)piperazin-1-yl)ethan-1-one]	24 ± 3	65 ± 3					
C=CC(=O)N1CCN(c2nc(N(C)Cc3cccc(F)c3)nc3sc4c(c23)CCCC4)CC1 [EIN-141, 1-(4-(2-((3-fluorobenzyl)(methyl)amino)-5,6,7,8-tetrahydrobenzo[4,5]thieno[2,3-d]pyrimidin-4-yl)piperazin-1-yl)prop-2-en-1-one]	0	18 ± 5	0	0			
C=CC(=O)N1CCN(c2nc(-c3cccc(OC)c3)nc3ccccc23)CC1 [EIN-159, 1-(4-(2-(3-methoxyphenyl)quinazolin-4-yl)piperazin-1-yl)prop-2-en-1-one]					91	14.5 ± 1.3	
C=CC(=O)N1CCN(c2nc(-c3ccc(OC)cc3F)nc3ccccc23)CC1 [EIN-164, 1-(4-(2-(2-fluoro-4-methoxyphenyl)quinazolin-4-yl)piperazin-1-yl)prop-2-en-1-one]					100	22.9 ± 1.3	
Cc1sc2nc(C3CC3)nc(N3CCN(C(=O)CCl)CC3)c2c1C [EIN-129, 2-chloro-1-(4-(2-cyclopropyl-5,6-dimethylthieno[2,3-d]pyrimidin-4-yl)piperazin-1-yl)ethan-1-one]	81 ± 16	119 ± 13	57 ± 12	103 ± 5			
CCCc1nc(N2CCN(C(=O)CCl)CC2)c2c3c(sc2n1)CC(C)CC3 (centres unmarked) [EIN-130, 2-chloro-1-(4-(7-methyl-2-propyl-5,6,7,8-tetrahydrobenzo[4,5]thieno[2,3-d]pyrimidin-4-yl)piperazin-1-yl)ethan-1-one]	46 ± 9	100 ± 9	52 ± 12	85 ± 6			
CCCCc1nc(N2CCN(C(=O)CCl)CC2)c2c3c(sc2n1)CC(C)CC3 (centres unmarked) [EIN-124, 1-(4-(2-butyl-7-methyl-5,6,7,8-tetrahydrobenzo[4,5]thieno[2,3-d]pyrimidin-4-yl)piperazin-1-yl)-2-chloroethan-1-one]	71 ± 13	113 ± 13	49 ± 11	90 ± 5			
C=CC(=O)N1CCN(c2nc(-c3ccc(OC)cc3)nc3ccccc23)CC1 [EIN-161, 1-(4-(2-(4-methoxyphenyl)quinazolin-4-yl)piperazin-1-yl)prop-2-en-1-one]					91	13.3 ± 1.9	
CCCCc1nc(N2CCN(C(=O)CCl)CC2)c2c3c(sc2n1)CCCC3 [EIN-126, 1-(4-(2-butyl-5,6,7,8-tetrahydrobenzo[4,5]thieno[2,3-d]pyrimidin-4-yl)piperazin-1-yl)-2-chloroethan-1-one]	18 ± 5	63 ± 1	12 ± 5	34 ± 2			
CC1CN(C(=O)CN2CCc3sccc3C2c2cccc(F)c2)CCN1C(=O)CCl (centres unmarked) [EIN-120, 2-chloro-1-(4-(2-(4-(3-fluorophenyl)-6,7-dihydrothieno[3,2-c]pyridin-5(4H)-yl)acetyl)-2-methylpiperazin-1-yl)ethan-1-one]	18 ± 5	63 ± 1	12 ± 5	34 ± 2			
C=CC(=O)N1CCN(c2nc(N(C)Cc3ccc(F)cc3)nc3sc4c(c23)CCCC4)CC1 [EIN-142, 1-(4-(2-((4-fluorobenzyl)(methyl)amino)-5,6,7,8-tetrahydrobenzo[4,5]thieno[2,3-d]pyrimidin-4-yl)piperazin-1-yl)prop-2-en-1-one]	17 ± 4	28 ± 3	0	0			
O=C(CCl)N1CCN(c2nc(Cc3ccccc3)nc3sc4c(c23)CCCC4)CC1 [EIN-127, 1-(4-(2-benzyl-5,6,7,8-tetrahydrobenzo[4,5]thieno[2,3-d]pyrimidin-4-yl)piperazin-1-yl)-2-chloroethan-1-one]	57 ± 14	106 ± 11	41 ± 5	79 ± 4			
